# Assay results published in patent US8895551B2, “Acrylamide compounds and the use thereof” (Shionogi & Co., Ltd., priority 2009, dated 2014).
# Biological target: T1, N-type calcium channel (NTCC) (Homo sapiens, UniProt Q00975)
# T1 construct: host or cells: IMR32 cells differentiated with dibutyryl cyclic AMP and bromodeoxyuridine
# Assay: FLIPR calcium mobilization assay for N-type calcium channel
# Type: cell-based
# Conditions: N-type calcium channel (NTCC) blockers after a calcium mobilization in vitro assay; differentiated IMR32 cells
# Procedure: Cell maintenance and differentiation. Unless noted otherwise, cell culture reagents were purchased from Mediatech of Herndon, Md. IMR32 cells (American Type Culture Collection, ATCC, Manassas, Va.) were routinely cultured in growth medium consisting of minimum essential medium containing 10% fetal bovine serum (FBS, Hyclone, Logan, Utah), 100 U/mL penicillin, 100 μg/mL streptomycin, 2 mM L-glutamine, 1 mM sodium pyruvate, and 1×MEM non-essential amino acids. 80-90% confluent flasks of cells were differentiated using the following differentiation medium: Growth medium plus 1 mM dibutyryl cyclic AMP (Sigma, St. Louis, Mo.), and 2.5 μM bromodeoxyuridine (Sigma). Cells were differentiated for 8 days by replacing differentiation medium every 2-3 days.
# FLIPR Calcium Mobilization Assay for N-type Calcium Channel. One day prior to performing this assay, differentiated IMR32 cells were treated with 1× CellStripper, and seeded on poly-D-lysine-coated 96-well clear-bottom black plates (Becton Dickinson, Franklin Lakes, N.J.) at 200,000 cells/well. On the day of the assay, the cell plates were washed with IMR32 buffer (127 mM NaCl, 1 mM KCl, 2 mM MgCl2, 700 μM NaH2PO4, 5 mM CaCl2, 5 mM NaHCO3, 8 mM HEPES, 10 mM glucose, pH 7.4), then pre-stimulated with KCl and loaded as follows: 0.05 mL of IMR^32 buffer, 0.05 mL of each compound tested diluted in IMR^32 buffer containing 20 μM nitrendipine (Sigma), and 0.1 mL KCl dissolved in IMR^32 buffer, plus Fluo-4 were added (3 μM final concentration, Molecular Probes, Eugene, Oreg.). Final test compound concentrations ranged from about 846 μM to about 17 μM, final nitrendipine concentration was 5 μM, and final KCl concentration was 90 mM. After 1 hour, the cells were washed twice with 0.05 mL of each compound tested in nitrendipine-containing IMR32 buffer (no KCl or Fluo-4), and then replaced with 0.1 mL of each compound tested in nitrendipine-containing IMR^32 buffer. Plates were then transferred to a Fluorimetric Imaging Plate Reader (FLIPR^96, Molecular Devices, Inc., Sunnyvale, Calif.) for assay. The FLIPR measured basal Fluo-4 fluorescence for 315 seconds (i.e., 5 minutes and 15 seconds), then added 0.1 mL KCl agonist dissolved in IMR32 buffer and measured fluorescence for another 45 seconds. Final test compound concentrations on the cells after FLIPR read ranged from about 846 μM to about 17 μM, final nitrendipine concentration was 5 μM, and final KCl concentration was 90 mM. Data were collected over the entire time course and analyzed using Excel, Graph Pad Prism (version 3.02, Graph Pad, San Diego, Calif.), or an in-house non-linear regression analysis software.
# T1 sequence (Q00975 whole entry): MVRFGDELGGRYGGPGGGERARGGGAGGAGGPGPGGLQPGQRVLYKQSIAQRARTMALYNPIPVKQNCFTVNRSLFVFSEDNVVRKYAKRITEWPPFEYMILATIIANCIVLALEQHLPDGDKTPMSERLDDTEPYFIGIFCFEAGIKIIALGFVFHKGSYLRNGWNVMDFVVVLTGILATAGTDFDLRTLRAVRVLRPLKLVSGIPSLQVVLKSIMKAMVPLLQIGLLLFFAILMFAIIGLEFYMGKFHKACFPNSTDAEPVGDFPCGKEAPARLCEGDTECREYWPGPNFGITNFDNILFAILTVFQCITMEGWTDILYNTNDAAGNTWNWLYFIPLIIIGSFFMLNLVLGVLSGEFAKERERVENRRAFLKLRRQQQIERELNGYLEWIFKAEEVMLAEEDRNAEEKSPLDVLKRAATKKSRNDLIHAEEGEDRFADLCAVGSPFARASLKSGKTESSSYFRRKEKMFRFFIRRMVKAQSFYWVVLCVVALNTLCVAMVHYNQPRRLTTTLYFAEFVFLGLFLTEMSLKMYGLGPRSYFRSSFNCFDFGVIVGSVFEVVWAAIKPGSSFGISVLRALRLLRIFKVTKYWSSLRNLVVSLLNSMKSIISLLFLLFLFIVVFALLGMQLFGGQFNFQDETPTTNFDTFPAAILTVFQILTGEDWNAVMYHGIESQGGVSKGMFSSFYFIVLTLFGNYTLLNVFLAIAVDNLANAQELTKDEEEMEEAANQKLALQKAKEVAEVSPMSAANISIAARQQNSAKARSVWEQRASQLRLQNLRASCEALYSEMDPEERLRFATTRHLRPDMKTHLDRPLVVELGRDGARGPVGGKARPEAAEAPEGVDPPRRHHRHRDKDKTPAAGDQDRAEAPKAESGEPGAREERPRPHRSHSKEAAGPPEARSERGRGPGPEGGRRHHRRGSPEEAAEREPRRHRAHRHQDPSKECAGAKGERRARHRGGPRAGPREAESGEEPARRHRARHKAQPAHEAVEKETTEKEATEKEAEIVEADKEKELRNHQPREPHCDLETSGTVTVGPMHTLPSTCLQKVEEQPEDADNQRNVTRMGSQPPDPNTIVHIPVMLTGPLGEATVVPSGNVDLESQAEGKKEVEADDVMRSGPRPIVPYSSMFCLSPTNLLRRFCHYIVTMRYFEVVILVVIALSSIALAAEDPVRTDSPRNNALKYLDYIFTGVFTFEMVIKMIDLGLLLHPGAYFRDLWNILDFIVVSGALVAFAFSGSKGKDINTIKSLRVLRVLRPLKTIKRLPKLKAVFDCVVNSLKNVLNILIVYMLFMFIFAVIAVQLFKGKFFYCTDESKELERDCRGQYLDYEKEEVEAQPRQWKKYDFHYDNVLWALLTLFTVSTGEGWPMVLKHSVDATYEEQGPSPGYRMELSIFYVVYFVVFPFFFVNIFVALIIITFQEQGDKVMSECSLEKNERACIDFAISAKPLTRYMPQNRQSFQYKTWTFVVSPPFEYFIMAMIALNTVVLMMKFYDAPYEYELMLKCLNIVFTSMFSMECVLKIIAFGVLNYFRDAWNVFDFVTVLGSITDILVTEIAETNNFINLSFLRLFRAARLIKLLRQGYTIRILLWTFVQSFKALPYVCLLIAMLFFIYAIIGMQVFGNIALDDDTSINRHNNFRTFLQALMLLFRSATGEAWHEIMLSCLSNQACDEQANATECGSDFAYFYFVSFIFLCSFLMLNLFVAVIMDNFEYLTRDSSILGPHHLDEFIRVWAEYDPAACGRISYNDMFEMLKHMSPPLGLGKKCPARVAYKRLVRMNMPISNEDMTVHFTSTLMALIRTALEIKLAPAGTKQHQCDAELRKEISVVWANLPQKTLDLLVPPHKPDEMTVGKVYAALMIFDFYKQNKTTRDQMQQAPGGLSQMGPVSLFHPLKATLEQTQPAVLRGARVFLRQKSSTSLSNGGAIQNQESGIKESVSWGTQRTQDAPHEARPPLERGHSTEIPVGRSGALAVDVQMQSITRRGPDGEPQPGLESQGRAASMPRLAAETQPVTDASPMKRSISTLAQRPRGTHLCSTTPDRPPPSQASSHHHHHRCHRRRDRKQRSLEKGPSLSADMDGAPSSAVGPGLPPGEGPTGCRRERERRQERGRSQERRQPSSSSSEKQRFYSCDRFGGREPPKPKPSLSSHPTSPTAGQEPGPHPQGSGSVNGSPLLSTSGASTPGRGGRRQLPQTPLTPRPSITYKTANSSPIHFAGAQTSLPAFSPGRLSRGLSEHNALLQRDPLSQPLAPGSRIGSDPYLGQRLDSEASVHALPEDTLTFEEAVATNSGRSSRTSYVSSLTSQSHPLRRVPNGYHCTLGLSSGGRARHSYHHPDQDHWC
# T1 sequence (P54289 25-956 partner limits assumed): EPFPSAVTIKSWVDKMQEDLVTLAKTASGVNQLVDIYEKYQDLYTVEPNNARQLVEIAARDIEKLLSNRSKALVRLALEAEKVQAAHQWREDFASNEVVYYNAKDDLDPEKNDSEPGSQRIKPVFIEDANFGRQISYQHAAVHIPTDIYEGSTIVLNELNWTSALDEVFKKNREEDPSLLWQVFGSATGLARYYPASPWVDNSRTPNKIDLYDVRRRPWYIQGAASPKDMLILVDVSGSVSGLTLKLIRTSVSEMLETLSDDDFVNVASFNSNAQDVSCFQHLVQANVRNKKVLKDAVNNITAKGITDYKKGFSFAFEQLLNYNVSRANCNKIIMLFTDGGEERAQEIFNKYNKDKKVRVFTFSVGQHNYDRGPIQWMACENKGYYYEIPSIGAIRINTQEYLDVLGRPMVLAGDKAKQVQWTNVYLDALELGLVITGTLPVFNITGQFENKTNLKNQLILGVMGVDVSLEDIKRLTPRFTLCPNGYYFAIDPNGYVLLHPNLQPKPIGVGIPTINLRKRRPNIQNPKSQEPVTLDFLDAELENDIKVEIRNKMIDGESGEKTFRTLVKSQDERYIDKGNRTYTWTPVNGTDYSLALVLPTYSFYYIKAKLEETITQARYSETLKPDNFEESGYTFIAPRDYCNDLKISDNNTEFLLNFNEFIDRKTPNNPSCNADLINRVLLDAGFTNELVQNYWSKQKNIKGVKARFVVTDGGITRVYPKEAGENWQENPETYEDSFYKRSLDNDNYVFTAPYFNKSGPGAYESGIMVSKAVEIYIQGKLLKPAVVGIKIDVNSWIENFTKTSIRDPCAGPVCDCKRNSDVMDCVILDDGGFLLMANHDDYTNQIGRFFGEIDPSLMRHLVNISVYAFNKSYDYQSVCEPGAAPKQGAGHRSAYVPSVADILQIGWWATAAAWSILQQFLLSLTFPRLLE
# T1 sequence (P54289 957-1103 partner limits assumed): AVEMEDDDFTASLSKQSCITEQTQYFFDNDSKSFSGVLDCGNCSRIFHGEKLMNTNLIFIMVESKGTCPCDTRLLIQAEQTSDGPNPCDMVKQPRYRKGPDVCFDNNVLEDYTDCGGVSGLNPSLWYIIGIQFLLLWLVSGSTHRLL
# T1 sequence (P54284 whole entry partner): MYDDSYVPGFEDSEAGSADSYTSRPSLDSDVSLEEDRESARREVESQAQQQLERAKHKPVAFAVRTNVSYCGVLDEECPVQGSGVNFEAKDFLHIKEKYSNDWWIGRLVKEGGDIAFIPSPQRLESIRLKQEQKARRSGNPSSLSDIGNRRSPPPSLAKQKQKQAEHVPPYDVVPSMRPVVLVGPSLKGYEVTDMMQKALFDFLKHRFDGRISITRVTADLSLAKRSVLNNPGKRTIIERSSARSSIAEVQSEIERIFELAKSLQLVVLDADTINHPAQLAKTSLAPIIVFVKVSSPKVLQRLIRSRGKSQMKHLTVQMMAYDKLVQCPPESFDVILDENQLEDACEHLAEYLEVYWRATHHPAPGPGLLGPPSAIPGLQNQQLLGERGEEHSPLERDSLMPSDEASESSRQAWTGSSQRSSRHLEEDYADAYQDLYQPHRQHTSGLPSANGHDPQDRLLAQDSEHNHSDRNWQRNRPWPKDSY
row,SMILES,IC50
1,"O=C(C=C1CCN(S(=O)(=O)c2ccc(OC(F)(F)F)cc2)CC1)NCc1ccccc1 [Example 3, N-benzyl-2-(1-(4-(trifluoromethoxy)phenylsulfonyl)piperidin-4-ylidene)Acetamide]",598 nM
2,"O=C(C=C1CCN(S(=O)(=O)c2ccc(OC(F)(F)F)cc2)CC1)NCc1ccc(F)cc1 [Example 9, N-(4-fluorobenzyl)-2-(1-(4-(trifluoromethoxy)phenylsulfonyl)piperidin-4-ylidene)Acetamide]",115 nM
3,"CN(Cc1ccc(F)cc1)C(=O)C=C1CCN(S(=O)(=O)c2ccc(OC(F)(F)F)cc2)CC1 [Example 10, N-(4-fluorobenzyl)-N-methyl-2-(1-(4-(trifluoromethoxy)phenylsulfonyl)piperidin-4-ylidene)Acetamide]",161 nM
4,"N#Cc1ccc(CNC(=O)C=C2CCN(S(=O)(=O)c3ccc(OC(F)(F)F)cc3)CC2)cc1 [Example 11, N-(4-cyanobenzyl)-2-(1-(4-(trifluoromethoxy)phenylsulfonyl)piperidin-4-ylidene)Acetamide]",560 nM
5,"O=C(C=C1CCN(S(=O)(=O)c2ccc(OC(F)(F)F)cc2)CC1)NC1(c2ccc(F)cc2)CC1 [Example 12, N-(1-(4-fluorophenyl)cyclopropyl)-2-(1-(4-(trifluoromethoxy)phenylsulfonyl)piperidin-4-ylidene)Acetamide]",361 nM
6,"CC(C)OCCNC(=O)C=C1CCN(S(=O)(=O)c2ccc(OC(F)(F)F)cc2)CC1 [Example 15, N-(2-isopropoxyethyl)-2-(1-(4-(trifluoromethoxy)phenylsulfonyl)piperidin-4-ylidene)Acetamide]",718 nM
7,"COC(=O)C(NC(=O)C=C1CCN(S(=O)(=O)c2ccc(OC(F)(F)F)cc2)CC1)c1ccc(F)cc1 (centres unmarked) [Example 19, methyl 2-(4-fluorophenyl)-2-(2-(1-(4-(trifluoromethoxy)phenylsulfonyl)piperidin-4-ylidene)acetamido)Acetate]",865 nM
8,"O=C(C=C1CCN(S(=O)(=O)c2ccc(OC(F)(F)F)cc2)CC1)NC(CO)c1ccc(F)cc1 (centres unmarked) [Example 20, N-(1-(4-fluorophenyl)-2-hydroxyethyl)-2-(1-(4-(trifluoromethoxy)phenylsulfonyl)piperidin-4-ylidene)acetamide]",822 nM
9,"O=C(C=C1CCN(S(=O)(=O)c2cccc(C(F)(F)F)c2)CC1)NCC1CC1 [Example 22, N-(cyclopropylmethyl)-2-(1-(3-(trifluoromethyl)phenylsulfonyl)piperidin-4-ylidene)acetamide]",829 nM
10,"CC(C)(c1cccc(C(F)(F)F)c1)N1CCC(=CC(=O)NCC2CC2)CC1 [Example 31, N-(cyclopropylmethyl)-2-(1-(2-(3-(trifluoromethyl)phenyl)propan-2-yl)piperidin-4-ylidene)acetamide]",681 nM

# The next lines start with the values.
row,IC50,SMILES
1,248 nM,"O=C(C=C1CCN(S(=O)(=O)c2ccc(OC(F)(F)F)cc2)CC1)NCCC1CC1 [Example 13, N-(2-cyclopropylethyl)-2-(1-(4-(trifluoromethoxy)phenylsulfonyl)piperidin-4-ylidene)Acetamide]"
2,912 nM,"COC(C(=O)NCC1CC1)=C1CCN(S(=O)(=O)c2ccc(OC(F)(F)F)cc2)CC1 [Example 32, N-(cyclopropylmethyl)-2-methoxy-2-(1-(4-(trifluoromethoxy)phenylsulfonyl)piperidin-4-ylidene)acetamide]"
3,555 nM,"CO/C(=C\C1CCN(S(=O)(=O)c2ccc(OC(F)(F)F)cc2)CC1)C(=O)NC1CC1 [Example 37, (Z)—N-cyclopropyl-2-methoxy-3-(1-(4-(trifluoromethoxy)phenylsulfonyl)piperidin-4-yl)acrylamide]"
4,832 nM,"CO/C(=C/C1CCN(S(=O)(=O)c2ccc(OC(F)(F)F)cc2)CC1)C(=O)NC1CC1 [Example 38, (E)-N-cyclopropyl-2-methoxy-3-(1-(4-(trifluoromethoxy)phenylsulfonyl)piperidin-4-yl)acrylamide]"
5,695 nM,"O=C(/C=C1\CCCN(S(=O)(=O)c2ccc(OC(F)(F)F)cc2)C1)NCC1CC1 [Example 40, (E)-N-(cyclopropylmethyl)-2-(1-(4-(trifluoromethoxy)phenylsulfonyl)piperidin-3-ylidene)acetamide]"
6,990 nM,"O=C(/C=C1\CCCN(S(=O)(=O)c2ccc(OC(F)(F)F)cc2)C1)NC1CC1 [Example 41, (E)-N-cyclopropyl-2-(1-(4-(trifluoromethoxy)phenylsulfonyl)piperidin-3-ylidene)acetamide]"
7,857 nM,"CO/C(=C\C1CN(S(=O)(=O)c2ccc(OC(F)(F)F)cc2)CCO1)C(=O)NC1CC1 (centres unmarked) [Example 44, (Z)—N-cyclopropyl-2-methoxy-3-(4-(4-(trifluoromethoxy)phenylsulfonyl)morpholin-2-yl)acrylamide]"
